Assay results: patent US20260250320A1, “LIPIDATED PEPTIDE INHIBITORS OF INTERLEUKIN-23 RECEPTOR” (Janssen Pharmaceutica NV, priority 2023, published 2026)
*1 amine or outer side, *2 acyl side, *3 side chain or, on linkers, in order; H or OH if unused. Where a SMILES comes first, the peptide text is derived from it. Bridges are numbered along the chain shown (N, C = ends). Side-chain parts run from the residue outwards. [ ]: non-standard residue; d: D form. The star is where a group is joined. ξ: configuration not given here. Me3N+CH2CH2(OCH2CH2)4CO = C[N+](C)(C)CCOCCOCCOCCOCCC(=O)*; Me3N+(CH2)2O(CH2)2O(CH2)2CO = C[N+](C)(C)CCOCCOCCC(=O)*; Trp(7-Me) = Cc1cccc2c(C[C@H](N)C(=O)O)c[nH]c12; d(γGlu) = O=C(O)[C@@H](CCC(=O)[*:2])N[*:1]; C18 diacid = O=C(O)CCCCCCCCCCCCCCCCC(=O)*; X6 = CN(CC[C@H](N[*:1])C(=O)[*:2])[*:3]; γGlu = O=C(O)[C@H](CCC(=O)[*:2])N[*:1]; 2Nal = N[C@@H](Cc1ccc2ccccc2c1)C(=O)O; AEF = NCCOc1ccc(C[C@H](N)C(=O)O)cc1; X2 = C[N+](C)(C)C[C@@H](CC(=O)O)N*; ξAEF = NCCOc1ccc(CC(N)C(=O)O)cc1; 3Pal = N[C@@H](Cc1cccnc1)C(=O)O; Lys(Me) = CNCCCC[C@H](N)C(=O)O; NMeK = CN[C@@H](CCCCN)C(=O)O; Pen = CC(C)(S)[C@H](N)C(=O)O; Suc = O=C(CCC(=O)[*:2])[*:1]; Thp = NC1(C(=O)O)CCOCC1; AEEA = NCCOCCOCC(=O)O; ξK = NCCCCC(N)C(=O)O; Sar = CNCC(=O)O

How the values were obtained:
[1] = target: T1, IL-23R (Homo sapiens, UniProt Q5VWK5); experiment: IL23R Reporter Assay; assay type: cell-based; conditions: HEK293 cells containing IL-23R, IL-12Rβ1 and STAT-inducible firefly luciferase reporter; 10 ng/mL IL-23 (EC90); 5 h
T1 construct: HEK293 cells containing IL-23R, IL-12Rβ1 and a firefly luciferase reporter gene driven by a STAT-inducible promoter (Promega); host or cells: HEK293
T1 sequence (Q5VWK5 24-629): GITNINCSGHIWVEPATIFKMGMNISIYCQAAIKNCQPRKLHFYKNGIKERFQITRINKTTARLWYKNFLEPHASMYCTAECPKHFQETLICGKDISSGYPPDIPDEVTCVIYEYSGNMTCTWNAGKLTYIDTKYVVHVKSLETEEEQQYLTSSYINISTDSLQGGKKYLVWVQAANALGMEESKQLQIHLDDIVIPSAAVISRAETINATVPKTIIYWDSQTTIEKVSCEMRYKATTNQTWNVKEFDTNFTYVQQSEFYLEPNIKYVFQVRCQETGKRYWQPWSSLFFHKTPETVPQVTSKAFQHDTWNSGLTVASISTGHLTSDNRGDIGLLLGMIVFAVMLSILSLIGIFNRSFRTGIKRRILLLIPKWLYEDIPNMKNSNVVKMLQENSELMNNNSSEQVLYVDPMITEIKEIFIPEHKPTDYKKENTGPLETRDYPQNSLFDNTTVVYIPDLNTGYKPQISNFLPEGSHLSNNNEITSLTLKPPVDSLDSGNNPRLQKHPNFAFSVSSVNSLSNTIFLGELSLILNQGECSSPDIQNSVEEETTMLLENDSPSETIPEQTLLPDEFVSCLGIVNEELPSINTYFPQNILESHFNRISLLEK
Outline: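 HEK293 cells carrying IL-23R, IL-12Rβ1 and a STAT-driven firefly luciferase reporter (4000 cells/well) received compound, then 10 ng/mL IL-23 solution (EC90), and were incubated for 5 h at 37° C. BioGlo luminescence was normalised to IL-23 alone (0%) and 30 μM control inhibitor (100%). IC50 came from a 4-parameter Hill fit.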

[2] = tested on: IL-23-stimulated phosphorylated STAT3 in peripheral blood mononuclear cells (PBMCs); experiment: PBMC pSTAT3 Assay; assay type: cell-based; conditions: PBMCs from healthy donors; 30 min preincubation with peptide; IL-23 5 ng/mL for 30 min; phospho-STAT3 by MSD
Outline: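 Healthy-donor PBMCs expanded 4 days on anti-CD3 with 100 ng/mL IL-1β, starved ~4 h in RPMI-0.1% BSA, preincubated 30 min with peptide, then stimulated 30 min at 37 °C with 5 ng/mL IL-23. Lysate pSTAT3 measured by MSD phospho-STAT panel; IC50 derived.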

SMILES	IC50 [1]	IC50 [2]
CC(=O)NC(CCCCNC(=O)COCCOCCNC(=O)COCCOCCNC(=O)CC[C@@H](NC(=O)CCCCCCCCCCCCCCCCC(=O)O)C(=O)O)C(=O)N[C@@H]1C(=O)N[C@@H](CC(N)=O)C(=O)N[C@@H]([C@@H](C)O)C(=O)N[C@@H](Cc2c[nH]c3c(C)cccc23)C(=O)N[C@@H](CCCCNC(=O)CCC(=O)N[C@H](CC(=O)O)C[N+](C)(C)C)C(=O)N[C@H](C(=O)N[C@@H](Cc2ccc(OCCN)cc2)C(=O)N[C@@H](Cc2ccc3ccccc3c2)C(=O)NC2(C(=O)N[C@@H](CCC(=O)O)C(=O)N[C@@H](CC(N)=O)C(=O)N[C@@H](Cc3cccnc3)C(=O)N(C)CC(N)=O)CCOCC2)C(C)(C)SSC1(C)C (stereo partly drawn) [compound 34, MeCO-k(PEG2PEG2gEC18OH)-Pen(3)-N-T-7MeW-K(d)-Pen(3)-AEF-2Nal-THP-E-N-3Pya-Sar-CONH2] (Ac-[ξK]([AEEA-AEEA-d(γGlu)-C18 diacid])[Pen]NT[Trp(7-Me)]K([Suc-X2])[Pen][AEF][2Nal][Thp]EN[3Pal][Sar]-NH2; disulfide 2-7)	< 50 nM	< 0.5 nM
Cc1cccc2c(C[C@@H]3NC(=O)[C@H]([C@@H](C)O)NC(=O)[C@H](CC(=O)N(C)C)NC(=O)[C@@H](NC(=O)CCOCCOCCOCCOCC[N+](C)(C)C)C(C)(C)SSC(C)(C)[C@@H](C(=O)NC(Cc4ccc(OCCN)cc4)C(=O)N[C@@H](Cc4ccc5ccccc5c4)C(=O)NC4(C(=O)N[C@@H](CCC(=O)O)C(=O)N[C@@H](CC(N)=O)C(=O)N[C@@H](Cc5cccnc5)C(=O)N(C)[C@@H](CCCCNC(=O)COCCOCCNC(=O)COCCOCCNC(=O)CC[C@H](NC(=O)CCCCCCCCCCCCCCCCC(=O)O)C(=O)O)C(N)=O)CCOCC4)NC(=O)[C@H](CCN(C)C(=O)CCOCCOCCOCCOCC[N+](C)(C)C)NC3=O)c[nH]c12 (some centres unmarked) [compound 153, cPEG5aCO-Pen(3)-N(N(Me)2)-T-7MeW-Dab(NMecPEG5a)-Pen(3)-AEF-2Nal-THP-E-N-3Pya-NMeK(PEG2PEG2gEC18OH)-CONH2] ({Me3N+CH2CH2(OCH2CH2)4CO}-[Pen]D(NMe2)T[Trp(7-Me)][X6](Me3N+CH2CH2(OCH2CH2)4CO)[Pen][ξAEF][2Nal][Thp]EN[3Pal][NMeK]([AEEA-AEEA-γGlu-C18 diacid])-NH2; disulfide 1-6)	50 to 500 nM	< 0.5 nM
CC(=O)NCCCC[C@@H]1NC(=O)[C@H](CC2CNc3c(C)cccc32)NC(=O)[C@H]([C@@H](C)O)NC(=O)[C@H](CC(N)=O)NC(=O)[C@@H](NC(=O)CCOCCOCC[N+](C)(C)C)C(C)(C)SSC(C)(C)[C@@H](C(=O)N[C@@H](Cc2ccc(OCCN)cc2)C(=O)N[C@@H](Cc2ccc3ccccc3c2)C(=O)NC2(C(=O)N[C@@H](CCCCNC(=O)COCCOCCNC(=O)COCCOCCNC(=O)CC[C@H](NC(=O)CCCCCCCCCCCCCCCCC(=O)O)C(=O)O)C(=O)N[C@@H](CC(N)=O)C(=O)N[C@@H](Cc3cccnc3)C(=O)N(C)CC(N)=O)CCOCC2)NC1=O (stereo partly drawn) [compound 78, cPEG3aCO-Pen(3)-N-T-7MeW-K(Ac)-Pen(3)-AEF-2Nal-THP-K(PEG2PEG2gEC18OH)-N-3Pya-Sar-CONH2]	50 to 500 nM	< 0.5 nM
CC(=O)N[C@H](CCCNC(=N)N)C(=O)N[C@@H]1C(=O)N[C@@H](CCCCNC(=O)COCCOCCNC(=O)COCCOCCNC(=O)CC[C@H](NC(=O)CCCCCCCCCCCCCCCCC(=O)O)C(=O)O)C(=O)N[C@@H]([C@@H](C)O)C(=O)N[C@@H](Cc2c[nH]c3c(C)cccc23)C(=O)N[C@@H](CCCCN(C)C(=O)CCOCCOCC[N+](C)(C)C)C(=O)N[C@H](C(=O)N[C@@H](Cc2ccc(OCCN)cc2)C(=O)N[C@@H](Cc2ccc3ccccc3c2)C(=O)NC2(C(=O)N[C@@H](CCC(=O)O)C(=O)N[C@@H](CC(N)=O)C(=O)N[C@@H](Cc3cccnc3)C(=O)N(C)CC(N)=O)CCOCC2)C(C)(C)SSC1(C)C [compound 76, MeCO-r-Pen(3)-K(PEG2PEG2gEC18OH)-T-7MeW-K(NMecPEG3a)-Pen(3)-AEF-2Nal-THP-E-N-3Pya-Sar-CONH2] (Ac-[dR][Pen]K([AEEA-AEEA-γGlu-C18 diacid])T[Trp(7-Me)][Lys(Me)](Me3N+(CH2)2O(CH2)2O(CH2)2CO)[Pen][AEF][2Nal][Thp]EN[3Pal][Sar]-NH2; disulfide 2-7)	< 50 nM	< 0.5 nM
